# Assay results as given in patent publication US5750504A, “Antimicrobial proteins” (Zeneca Agrochemicals, priority 1996, dated 1998).
# Legend:
# [1] = system: Bacillus subtilis JHCC 553331; experiment: Antibacterial activity assay (microspectrophotometry); type: cell-based
# Protocol: Antibacterial activity was measured microspectrophotometrically as follows. A bacterial suspension was prepared by inoculating soft nutrient agarose (tryptone, 10 g/l; Seaplaque agarose (FMC), 5 g/l). Aliquots (80 μl) of the bacterial suspension (10^5 colony forming units per ml) were added to filter-sterilized samples (20 μl) in flat-bottom 96-well microplates. The absorbance at 595 nm of the culture was measured with the aid of a microplate reader after 30 minutes and 24 hours of incubation at 28° C. Percent growth inhibition was calculated as described above for the antifungal activity assay.
# The antibacterial activities of Ah-AMP1 and Hs-AFP1 were measured on four gram positive bacteria (Bacillus subtilis JHCC 553331; Micrococcus luteus ATCC 93411; Staphylococcus aureus ATCC 25923; Streptococcus feacolis ATCC 29212) and two gram negative bacteria (Eschericia coli HB101 and Proteus vulgaris JHCC 558711).
# [2] = system: crude α-amylase extract from guts of adult cockroaches; experiment: Inhibition of α-amylase; type: biochemical, Blatta orientalis; conditions: cockroach gut enzyme; rates as high as 200 μg/ml
# Protocol: (§1) A crude α-amylase extract was prepared from dissected guts of adult cockroaches (Blatta orientalis) by homogenising in 20 mM Tris/HCl, pH 7.5, 10 mM CaCl2 and removal of cell-debris by centrifugation. Human and porcine α-amylases were purchased from Sigma. Type 1-α-amylaseinhibitor from wheat (purchased from Sigma) was used as a positive control. Amylase extracts were incubated with peptides for 20 min at 30° C. prior to addition of starch and enzyme activity was detected using the method of Bernfeld (1955, Methods Enzymol, Colwick and Kaplan eds, vol 1:149-158).
# (§2) The α-amylase inhibition activities of Hs-AFP1 and Ah-AMP1 were compared on α-amylases from the three sources to that of the Sorgum bicolor homologue SIα3, previously reported to inhibit insect gut α-amylases (Bloch and Richardson, 1991, FEBS Lett, 279:101-104). SIα3 inhibited the activity of the enzymes from insect gut and human saliva to greater than 70% at rates as low as 5 μg/ml.
# [3] = biological target: T1, Human α-amylase (human saliva) (Homo sapiens, UniProt P0DUB6); experiment: Inhibition of α-amylase; type: biochemical; conditions: human enzyme; rates as high as 200 μg/ml
# T1 construct: the enzymes from insect gut and human saliva; purchased Sigma; host or cells: human saliva
# T1 sequence (P0DUB6 16-511): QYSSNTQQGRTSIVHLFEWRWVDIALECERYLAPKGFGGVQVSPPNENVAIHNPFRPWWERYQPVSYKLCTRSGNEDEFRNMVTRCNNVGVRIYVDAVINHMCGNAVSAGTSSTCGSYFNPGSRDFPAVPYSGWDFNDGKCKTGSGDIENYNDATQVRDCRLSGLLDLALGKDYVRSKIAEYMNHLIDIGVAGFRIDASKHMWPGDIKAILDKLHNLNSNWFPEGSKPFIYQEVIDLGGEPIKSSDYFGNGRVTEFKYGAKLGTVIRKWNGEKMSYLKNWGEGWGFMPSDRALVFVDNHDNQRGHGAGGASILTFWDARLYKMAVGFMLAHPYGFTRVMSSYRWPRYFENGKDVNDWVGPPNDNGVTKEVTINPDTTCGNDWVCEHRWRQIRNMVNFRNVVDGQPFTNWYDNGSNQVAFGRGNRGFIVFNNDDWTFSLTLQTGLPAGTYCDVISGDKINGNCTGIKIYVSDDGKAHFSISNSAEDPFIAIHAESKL
# Protocol: as §1, §2
# [4] = biological target: T2, porcine α-amylase (porcine pancreas) (Sus scrofa, UniProt P00690); experiment: Inhibition of α-amylase; type: biochemical; conditions: porcine enzyme; rates as high as 200 μg/ml
# T2 construct: the enzyme from porcine pancreas; purchased Sigma; host or cells: porcine pancreas
# T2 sequence (P00690 16-511): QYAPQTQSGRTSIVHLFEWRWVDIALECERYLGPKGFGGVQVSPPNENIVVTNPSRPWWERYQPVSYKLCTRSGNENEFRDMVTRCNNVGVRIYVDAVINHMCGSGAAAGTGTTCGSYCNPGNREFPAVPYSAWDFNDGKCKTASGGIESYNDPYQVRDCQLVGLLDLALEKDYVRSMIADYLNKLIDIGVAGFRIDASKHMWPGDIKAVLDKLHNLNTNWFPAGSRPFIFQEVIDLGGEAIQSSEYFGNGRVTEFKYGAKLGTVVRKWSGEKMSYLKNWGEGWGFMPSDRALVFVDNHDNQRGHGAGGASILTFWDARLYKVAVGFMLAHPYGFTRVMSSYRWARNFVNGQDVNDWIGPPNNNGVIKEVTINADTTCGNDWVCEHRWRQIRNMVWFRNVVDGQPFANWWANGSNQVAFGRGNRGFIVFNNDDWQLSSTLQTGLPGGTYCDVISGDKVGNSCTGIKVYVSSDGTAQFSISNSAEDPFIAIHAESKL
# Protocol: as §1, §2
# [5] = system: hyphae of Fusarium culmorum; experiment: Morphological effect on hyphae; type: cell-based
# fungi = experiment: Morphological effect on fungal hyphae (fungi in general); type: cell-based
Substance,inhibition of bacterial growth ([1]; at 100 μg/ml),inhibition of α-amylase activity [2],inhibition of α-amylase activity [3],inhibition of α-amylase activity [4],hyper-branching of hyphae of Fusarium culmorum [5],hyperbranching of fungi (fungi),interference with fungal growth processes (hyphal length) (fungi),inhibition of bacterial growth ([1]; tested at 200 μg/ml)
"Ah-AMP1: Aesculus hippocastanum antimicrobial protein 1; 5 kDa polypeptide purified from seeds, 50 amino acids, SEQ ID NO 2 (LCNERPSQTWSGNCGNTAHCDKQCQDWEKASHGACHKRENHWKCFCYFNC)",inhibited growth,no inhibition,no inhibition,no inhibition,does not cause hyper-branching,do not,reduction in hyphal length,
"Hs-AFP1: Heuchera sanquinea antifungal protein 1; 5 kDa polypeptide purified from seeds, 54 amino acids, SEQ ID NO 1 (DGVKLCDVPSGTWSGHCGSSSKCSQQCKDREHFAYGGACHYQFPSVKCFCKRQC)",,no inhibition,no inhibition,no inhibition,causes hyper-branching,cause hyperbranching,reduction in hyphal length,did not inhibit the growth
